This assay is described as follows: Inhibition of [3H](+)-pentazocine binding to sigma receptor of guinea pig brain.

Experimental findings from BindingDB's records for doi:10.1021/jm00045a022 (National Institute of Diabetes and Digestive and Kidney …, 1994) are described below.

Structures are written as SMILES.

For orientation: Ki means a measure of affinity in units of concentration, obtained from inhibition or displacement.

On to `COc1cccc([C@]23CCN(C)[C@H](CC(=O)C2)C3)c1`, for which the affinity corresponds to a Ki of 0.762 µM. That is a sub-micromolar value.

Regarding `C[N+]1(C)CCC2(c3cccc(O)c3)CC(=O)C(=Cc3ccccc3)C1C2` (configuration not stated) [5-(3-Hydroxy-phenyl)-2,2-dimethyl-7-oxo-8-[1-phenyl-meth-(E)-ylidene]-2-azonia-bicyclo[3.3.1]nonane; iodide], the Ki came out at 5.4 µM. Against the preceding compound, the Ki is about 7.1-fold higher.
